Measurements as given in the supplement of paper PMC10307832.

Key:
Experiment in all cases: relative viability (nuclei count vs DMSO), 5 days (fraction); higher = more cells survive
[1] = compound: Cn1cc(-c2cnn3c(N)c(Br)c([C@@H]4CCCNC4)nc23)cn1 + CS(=O)(=O)N1CCN(Cc2cc3nc(-c4cccc5[nH]ncc45)nc(N4CCOCC4)c3s2)CC1 [Pictilisib] (partner 1 µM)
Procedure, shortened: (§1)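 Lung cancer cell lines were seeded in 1536-well plates and dosed by pin tool the next day, with either a single drug or a fixed anchor-drug dose combined with five library-drug doses (not always all listed) spaced in √10 steps. Five days later, one step fixed the cells and stained their nuclei (final 0.05% Triton X-100, 1% formaldehyde, 1 ug/ml Hoechst), and nuclei were counted on 4× images. Relative viability is the nuclei count in treated wells divided by the count in vehicle wells, and each value is the median of duplicate plates.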

[2] = compound: Cn1cc(-c2cnn3c(N)c(Br)c([C@@H]4CCCNC4)nc23)cn1 + Cc1nc(NC(=O)N2CCC[C@H]2C(N)=O)sc1-c1ccnc(C(C)(C)C(F)(F)F)c1 [Alpelisib] (partner 2 µM)
Procedure, shortened: as §1

[3] = compound: Cn1cc(-c2cnn3c(N)c(Br)c([C@@H]4CCCNC4)nc23)cn1 + N=C(N)NC(=N)NCCc1ccccc1 [Phenformin] (partner 250 µM)
Procedure, shortened: as §1

[4] = compound: Cn1cc(-c2cnn3c(N)c(Br)c([C@@H]4CCCNC4)nc23)cn1 + NC(=O)Nc1cc(-c2cccc(F)c2)sc1C(=O)N[C@H]1CCCNC1 [AZD7762] (partner 0.2 µM)
Procedure, shortened: as §1

| Cell Line | relative viability ([1]; first compound 0.05 µM) | relative viability ([1]; first compound 0.1581 µM) | relative viability ([1]; first compound 0.5 µM) | relative viability ([1]; first compound 1.581 µM) | relative viability ([1]; first compound 5 µM) | relative viability ([2]; first compound 0.05 µM) | relative viability ([2]; first compound 0.1581 µM) | relative viability ([2]; first compound 0.5 µM) | relative viability ([2]; first compound 1.581 µM) | relative viability ([2]; first compound 5 µM) | relative viability ([3]; first compound 0.05 µM) | relative viability ([3]; first compound 0.1581 µM) | relative viability ([3]; first compound 0.5 µM) | relative viability ([3]; first compound 5 µM) | relative viability ([4]; first compound 0.05 µM) | relative viability ([4]; first compound 0.1581 µM) | relative viability ([4]; first compound 0.5 µM) | relative viability ([4]; first compound 1.581 µM) | relative viability ([4]; first compound 5 µM) | relative viability ([3]; first compound 1.581 µM) |
| --- | --- | --- | --- | --- | --- | --- | --- | --- | --- | --- | --- | --- | --- | --- | --- | --- | --- | --- | --- | --- |
| LK-2 | 0.597 | 0.508 | 0.574 | 0.444 | 0.306 | 1.07 | 0.945 | 1.11 | 0.618 | 0.595 | 0.374 | 0.471 | 0.258 | 0.286 | 0.303 | 0.408 | 0.33 | 0.315 | 0.209 | – |
| LOU-NH91 | 0.518 | 0.515 | 0.527 | 0.535 | 0.511 | 0.721 | 0.664 | 0.695 | 0.658 | 0.561 | 0.668 | 0.657 | 0.679 | 0.562 | 0.373 | 0.744 | 0.761 | 0.727 | 0.642 | 0.706 |
| LU99A | 0.308 | 0.296 | 0.29 | 0.277 | 0.225 | 0.534 | 0.541 | 0.492 | 0.491 | 0.388 | 0.749 | 0.789 | 0.766 | 0.582 | 0.371 | 0.392 | 0.304 | 0.264 | 0.224 | 0.802 |
| LXF-289 | 0.827 | 0.907 | 0.896 | 0.712 | 0.825 | 1.08 | 1.14 | 1.01 | 1.01 | 1.06 | 0.525 | 0.57 | 0.496 | 0.528 | 1.09 | 1.16 | 1.09 | 0.981 | 1.05 | 0.486 |
| NCI-H23 | 0.576 | 0.506 | 0.395 | 0.313 | 0.198 | 0.741 | 0.717 | 0.613 | 0.667 | 0.227 | 0.834 | 0.713 | 0.835 | 0.187 | 0.253 | 0.273 | 0.25 | 0.162 | 0.123 | 0.747 |
| NCI-H322M | 0.542 | 0.5 | 0.421 | 0.475 | 0.377 | 0.765 | 0.799 | 0.863 | 0.756 | 0.678 | 0.681 | 0.595 | 0.717 | 0.254 | 0.51 | 0.428 | 0.501 | 0.447 | 0.407 | 0.474 |
| NCI-H358 | 0.314 | 0.346 | 0.309 | 0.352 | 0.304 | 0.957 | 0.766 | 0.852 | 0.518 | 0.78 | 0.293 | 0.344 | 0.308 | 0.261 | 0.417 | – | 0.447 | 0.38 | 0.36 | 0.216 |
| NCI-H441 | 0.669 | 0.56 | 0.478 | 0.527 | 0.46 | 0.859 | 1.15 | 0.856 | – | 0.852 | 0.785 | 1.15 | 0.915 | 0.727 | 1.27 | 1.32 | 1.05 | 1.1 | 0.956 | 0.841 |
| NCI-H460 | 0.363 | 0.394 | 0.357 | 0.314 | 0.125 | 0.59 | 0.459 | 0.509 | 0.155 | 0.0851 | 0.493 | 0.512 | 0.456 | 0.0895 | 0.496 | 0.579 | 0.603 | 0.757 | 0.519 | 0.176 |
| NCI-H596 | 0.386 | 0.401 | 0.427 | 0.362 | 0.413 | 0.939 | 0.498 | 0.47 | 0.494 | 0.478 | 0.865 | 0.825 | 0.729 | 0.691 | 1.13 | 1.06 | 1.06 | 1.01 | 1.1 | 0.561 |
| NCI-H647 | 0.485 | 0.409 | 0.368 | 0.291 | 0.341 | 1.16 | 1 | 1.05 | 0.331 | 0.444 | 0.367 | 0.491 | 0.598 | 0.215 | 0.497 | 0.496 | 0.349 | 0.37 | 0.238 | 0.177 |
| NCI-H650 | 1.06 | 0.882 | 0.804 | 0.749 | 0.602 | 1.16 | 1.22 | 1.23 | 1.05 | 0.858 | 0.426 | 0.413 | 0.447 | 0.399 | 0.954 | 0.923 | 1.1 | 1.04 | 0.928 | 0.486 |
| NCI-H727 | 0.411 | 0.354 | 0.604 | 0.276 | 0.22 | 0.575 | 0.535 | 0.534 | 0.412 | 0.361 | 0.505 | 0.501 | 0.663 | 0.238 | 0.591 | 0.52 | 0.512 | 0.536 | 0.472 | 0.51 |
| NCI-H838 | 0.365 | 0.501 | 0.416 | 0.264 | 0.488 | 1.08 | 1.16 | 0.94 | 0.784 | 1.02 | 0.483 | 0.66 | 0.552 | 0.554 | 0.991 | 0.92 | 1 | 0.879 | 0.84 | 0.324 |
| NCI-H1355 | 0.402 | 0.474 | 0.467 | 0.408 | 0.342 | 0.797 | 0.875 | 0.819 | 0.849 | 0.825 | 0.428 | 0.51 | 0.467 | 0.415 | 0.718 | 0.846 | 0.672 | 0.623 | 0.458 | 0.366 |
| NCI-H1395 | 0.575 | 0.671 | 0.562 | 0.51 | 0.585 | 1.18 | 0.685 | 0.874 | 0.66 | 0.435 | 0.44 | 0.41 | 0.435 | 0.358 | 0.397 | 0.393 | 0.372 | 0.372 | 0.351 | 0.359 |
